Data taken from patent US10112922B2, “Inhibitor of bruton's tyrosine kinase” (Centaurus BioPharma Co., Ltd., priority 2014, dated 2018).
pIC50: −log10 of the molar value. Entries after “also recorded” stand apart in the source; their conditions may differ. Where two headings read alike, the source gives them in different places.

Legend:
Btk kinase = Btk kinase (Homo sapiens (Human), UniProt Q06187); experiment: Btk kinase enzymatic activity assay (HTRF); format: biochemical
Description: The half inhibition concentrations (IC50 values) of the compounds disclosed herein on Btk were determined at both enzymatic level and cellular level: the ability of the compounds to inhibit the activity of Btk kinase was determined in an enzymtic activity assay, and the inhibitory effect of the compounds on BCR-induced calcium flux in cells was determined in a cellular function assay.
(§1) The compounds were gradiently diluted 3 folds starting from 1 mM with 100% DMSO (totally 11 concentrations). 4 μL of each sample with a different concentration was added into 96 μL of reaction buffer (50 mM HEPES, pH 7.4, 10 mM MgCl2, 1 mM EGTA, 0.01% Tween-20, 0.005% BAS, 2 mM DTT). […] The mixture was centrifuged to mix well, followed by adding 2.5 μL of a mixture of ATP (final concentration designated as Km) and TK petide (HTRF® KinEASE™-TK, Cisbio) to initiate the reaction (total reaction volume being 10 μL). […] The enzyme activity for each compound was determined at 11 concentrations, and IC50 values were obtained by GraFit Software 6.0 (Erithacus Software).

OCI-LY-10 cells = experiment: Efficacy in subcutaneously xenografted tumor model in mice; format: in vivo, CB-17 SCID mice; conditions: 100 mg/kg PO QD
Description: SPF grade female CB-17 SCID mice (4-5 week) were used. 0.1 ml of OCI-LY-10 cells suspended in serum-free medium (containing 5×10^6 cells, 30% Matrigel) were injected subcutaneously in both the left and the right flanks of mice. Mice were grouped and numbered when the average tumor volumes were more than 100 mm3, and the body weights and tumor volumes were determined. The mice were randomly grouped according to tumor volumes, and appropriate adjustments were made so that the average body weight in each group is on the same level. Animals were dosed orally on the same day when they were grouped, and body weights and tumor volumes were measured twice a week. Relative tumor growth (T/C) and Tumor growth inhibition (TGI) were the major test indeces.
The equation for calculating the tumor volume is V=0.5×a×b^2, wherein v is the tumor volume, a and b are the length and the width of the tumor, respectively. The relative tumor volume (RTV) was calculated according to the tumor volume with the equation RTV=Vt/V0, wherein V0 was the tumor volume at the time when the animals were grouped, and Vt was the tumor volume at indicated time points. The equation for calculating the relative tumor proliferation rate was T/C (%)=TRTV/CRTV*100%. (TRTV was the RTV of treated group, and CRTV was the RTV of control group).
The equation for calculating the tumor growth inhibition rate was TGI (%)=(1−(tumor volume of the treated group−tumor volume of the treated group at the time when the animals were grouped)/(tumor volume of the control group−tumor volume of the control group at the time when the animals were grouped))*100%.

[1] = tested on: type II collagen-induced arthritis; experiment: Type II collagen-induced arthritis mice model; format: in vivo, DBA/1 mice
Description: The mice were randomly grouped according to their arthritis scores when the onset of arthritis was observed after 4 weeks. Compounds were then administered continuously for 4 weeks, during which the arthritis scores were evaluated for each mouse and the body weights thereof were measure every other day. The criteria for evaluating the arthritis score were as follows:
1=erythema and mild swelling at ankle joint;
2=erythema and mild swelling from ankle joint to phalangeal joint or metacarpal joint;
3=erythema and moderate swelling from ankle joint to phalangeal joint or metacarpal joint;
4=erythema and severe swelling or ankylosis on whole foot including from ankle joint to phalangeal joint.
Each paw was scored according to the above criteria, and the highest score was 16.

[2] = Toxicity test in mice (7-day oral administration); format: in vivo, CD-1 (ICR) mice; conditions: for Average body weight of mice / Changes (%) in mice body weight in treated group over control group: 1000 mg/kg oral once a day
From the text: Body weights and conditions of mice were monitored every day, during which all mice were not fasting.

ITK kinase = ITK kinase (Homo sapiens (Human), UniProt Q08881); experiment: ITK kinase enzymatic assay (same HTRF method as BTK); format: biochemical
Sequence of ITK kinase (Q08881 whole entry): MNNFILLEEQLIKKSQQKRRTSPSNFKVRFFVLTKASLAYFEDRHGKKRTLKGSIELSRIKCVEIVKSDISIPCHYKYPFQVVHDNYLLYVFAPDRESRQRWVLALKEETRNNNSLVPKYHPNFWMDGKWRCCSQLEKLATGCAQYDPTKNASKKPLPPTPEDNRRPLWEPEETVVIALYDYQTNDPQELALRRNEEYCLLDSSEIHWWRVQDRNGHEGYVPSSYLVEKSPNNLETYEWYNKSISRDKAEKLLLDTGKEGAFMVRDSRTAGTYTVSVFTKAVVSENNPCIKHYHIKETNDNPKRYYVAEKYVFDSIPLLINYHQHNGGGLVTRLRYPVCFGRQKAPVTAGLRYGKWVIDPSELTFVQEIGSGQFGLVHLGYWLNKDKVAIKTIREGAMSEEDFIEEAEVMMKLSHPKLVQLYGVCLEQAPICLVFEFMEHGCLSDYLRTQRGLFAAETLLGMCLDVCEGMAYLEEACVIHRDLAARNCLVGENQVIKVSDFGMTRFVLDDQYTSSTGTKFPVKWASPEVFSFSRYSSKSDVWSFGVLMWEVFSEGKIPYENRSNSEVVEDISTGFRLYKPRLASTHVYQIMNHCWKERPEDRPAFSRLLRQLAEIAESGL
Description: as §1
In vitro activity in inhibiting ITK kinase was determined similar to that in respect of BTK kinase.

[3] = 1000 mg/kg oral once a day for 7 days

Sequence of Btk kinase (Q06187 whole entry): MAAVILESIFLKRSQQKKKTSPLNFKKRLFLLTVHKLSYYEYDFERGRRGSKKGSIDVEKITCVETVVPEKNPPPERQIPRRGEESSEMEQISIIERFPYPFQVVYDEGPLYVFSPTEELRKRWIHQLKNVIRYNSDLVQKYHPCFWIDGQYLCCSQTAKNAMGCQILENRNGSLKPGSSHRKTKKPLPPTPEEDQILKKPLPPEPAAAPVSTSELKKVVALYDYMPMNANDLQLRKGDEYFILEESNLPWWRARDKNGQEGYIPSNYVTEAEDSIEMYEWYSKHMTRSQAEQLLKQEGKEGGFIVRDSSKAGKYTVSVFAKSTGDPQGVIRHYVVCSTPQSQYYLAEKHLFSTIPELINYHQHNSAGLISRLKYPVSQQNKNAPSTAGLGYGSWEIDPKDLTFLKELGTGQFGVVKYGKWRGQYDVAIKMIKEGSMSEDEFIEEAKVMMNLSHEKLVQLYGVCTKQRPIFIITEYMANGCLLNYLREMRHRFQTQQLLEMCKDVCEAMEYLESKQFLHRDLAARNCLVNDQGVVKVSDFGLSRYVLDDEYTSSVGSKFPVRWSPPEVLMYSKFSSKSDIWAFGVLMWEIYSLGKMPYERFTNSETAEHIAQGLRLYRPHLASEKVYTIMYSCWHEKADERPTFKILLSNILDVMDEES

COC/C=C/C(=O)N1CC[C@@H](n2nc(-c3ccc(Oc4ccccc4)cc3)c(C(N)=O)c2N)C1 [Example 9, (R,E)-5-amino-1-(1-(4-methoxybut-2-enoyl)pyrrolidin-3-yl)-3-(4-phenoxyphenyl)-1H-pyrazole-4-carboxamide]
pIC50 (Btk kinase; Table 1, read-out: Btk IC50): > 7.00
IC50 (Btk kinase; Table 5, kinase selectivity test, read-out: IC50 (nM) BTK): 1.9 nM
selectivity on BTK vs ITK (Btk kinase; calculated from IC50 values): more than 1000 folds
TGI (%) Day 3 (OCI-LY-10 cells; Day 3): 45.79%
TGI (%) Day 8 (OCI-LY-10 cells; Day 8): 39.37%
TGI (%) Day 11 (OCI-LY-10 cells; Day 11): 43.05%
therapeutic effect on arthritis at very low dosage ([1]; 0.3 mg/kg): good therapeutic effect; also recorded: comparable to that of 3 mg/kg of PCI-32765
arthritis (arthritis score) after administration ([1]; administered continuously for 4 weeks, FIG. 1): significantly alleviated
difference in body weight change from control group [2, 3]: < 2%
toxicity [2, 3]: no toxicity
Average body weight of mice ([2]; Day 1): 24.4 g
Changes (%) in mice body weight in treated group over control group ([2]; Day 1): 100.0%
Average body weight of mice ([2]; Day 2): 24.6 g
Changes (%) in mice body weight in treated group over control group ([2]; Day 2): 100.0%
Average body weight of mice ([2]; Day 3): 25.1 g
Changes (%) in mice body weight in treated group over control group ([2]; Day 3): 100.3%
Average body weight of mice ([2]; Day 4): 25.6 g
Changes (%) in mice body weight in treated group over control group ([2]; Day 4): 101.1%
Average body weight of mice ([2]; Day 5): 26.4 g
Changes (%) in mice body weight in treated group over control group ([2]; Day 5): 101.8%
Average body weight of mice ([2]; Day 6): 26.9 g
Changes (%) in mice body weight in treated group over control group ([2]; Day 6): 101.7%
Average body weight of mice ([2]; Day 7): 27.2 g
Changes (%) in mice body weight in treated group over control group ([2]; Day 7): 101.7%
pIC50 (ITK kinase; Table 1, read-out: Itk IC50): < 6.00
IC50 (ITK kinase; Table 5, kinase selectivity test, read-out: IC50 (nM) ITK): > 1000 nM
